Measurements from patent publication US20090203683A1, “BICYCLIC HETEROCYCLES, PHARMACEUTICAL COMPOSITIONS CONTAINING THEM, THEIR USE, AND PROCESSES FOR PREPARING THEM” (BOEHRINGER INGELHEIM PHARMA GMBH & CO. KG, priority 2000, published 2009).
pIC50: −log10 of the molar value.

What was measured:
human EGF-R = target: T1, human EGF-R (Homo sapiens, UniProt P00533); test: Inhibition of EGF-dependent proliferation of F/L-HERc cells (Cell Titer 96 Aqueous Non-Radioactive Cell Proliferation Assay); assay type: cell-based; conditions: F/L-HERc cells (murine IL-3-dependent line expressing human EGF-R), stimulated with EGF 20 ng/ml, 48 hours at 37° C., relative cell number as % of control
T1 construct: expressed in transfected cells; host or cells: F/L-HERc cells (murine IL-3-dependent FDC-P1 cells transduced with retroviral vector LXSN carrying human EGF-R cDNA; packaging line GP+E86)
T1 sequence (P00533 25-1210): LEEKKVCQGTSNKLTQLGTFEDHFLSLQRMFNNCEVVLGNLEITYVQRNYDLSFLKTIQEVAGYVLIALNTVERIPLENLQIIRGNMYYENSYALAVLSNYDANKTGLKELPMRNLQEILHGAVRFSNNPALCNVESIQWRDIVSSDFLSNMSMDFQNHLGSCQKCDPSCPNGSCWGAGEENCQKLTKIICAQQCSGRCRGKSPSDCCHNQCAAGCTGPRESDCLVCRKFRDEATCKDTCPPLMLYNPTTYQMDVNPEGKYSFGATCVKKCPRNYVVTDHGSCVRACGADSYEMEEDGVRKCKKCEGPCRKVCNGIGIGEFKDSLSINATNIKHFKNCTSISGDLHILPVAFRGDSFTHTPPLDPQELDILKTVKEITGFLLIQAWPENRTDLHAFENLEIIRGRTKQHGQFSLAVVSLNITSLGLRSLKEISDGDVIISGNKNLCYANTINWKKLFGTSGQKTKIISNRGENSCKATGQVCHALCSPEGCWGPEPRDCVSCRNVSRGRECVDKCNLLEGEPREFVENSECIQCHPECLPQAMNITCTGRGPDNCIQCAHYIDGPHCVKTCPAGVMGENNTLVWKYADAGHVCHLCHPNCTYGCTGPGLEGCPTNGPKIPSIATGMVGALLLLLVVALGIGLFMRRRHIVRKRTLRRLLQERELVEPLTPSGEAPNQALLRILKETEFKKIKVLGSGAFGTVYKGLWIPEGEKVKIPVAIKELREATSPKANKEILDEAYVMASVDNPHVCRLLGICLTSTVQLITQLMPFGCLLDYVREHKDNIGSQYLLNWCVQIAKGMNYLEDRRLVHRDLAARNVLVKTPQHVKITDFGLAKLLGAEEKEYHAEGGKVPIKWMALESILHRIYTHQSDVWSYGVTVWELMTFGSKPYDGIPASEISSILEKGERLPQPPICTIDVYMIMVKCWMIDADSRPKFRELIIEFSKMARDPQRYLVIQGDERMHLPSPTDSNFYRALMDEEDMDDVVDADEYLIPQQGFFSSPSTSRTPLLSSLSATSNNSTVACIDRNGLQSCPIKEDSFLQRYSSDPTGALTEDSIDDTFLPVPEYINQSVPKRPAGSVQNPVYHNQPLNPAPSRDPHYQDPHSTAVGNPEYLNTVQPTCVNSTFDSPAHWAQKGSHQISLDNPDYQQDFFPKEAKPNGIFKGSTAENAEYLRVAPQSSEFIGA
From the text: The biological properties of the new compounds were investigated as follows. […] A cell line of murine origin dependent on interleukin-3-(IL-3) which was genetically modified to express functional human EGF-R was used here. The proliferation of these cells known as F/L-HERc can therefore be stimulated either by murine IL-3 or by EGF (cf. T. von Rüden et al. in EMBO J. 7, 2749-2756 (1988) and J. H. Pierce et al. in Science 239, 628-631 (1988)). The starting material used for the F/L-HERc cells was the cell line FDC-P1, the production of which has been described by T. M. Dexter et al. in J. Exp. Med. 152, 1036-1047 (1980). Alternatively, however, other growth-factor-dependent cells may also be used (cf. for example, J. H. Pierce et al. in Science 239, 628-631 (1988); H. Shibuya et al. in Cell 70, 57-67 (1992) and W. S. Alexander in EMBO J. 10, 3683-3691 (1991)). For expressing the human EGF-R cDNA (cf. A. Ullrich et al. in Nature 309, 418-425 (1984)) recombinant retroviruses were used as described by T. von Rüden et al., EMBO J. 7, 2749-2756 (1988), except that the retroviral vector LXSN (cf. A. D. Miller et al. in BioTechniques 7, 980-990 (1989)) was used for the expression of the EGF-R cDNA and the line GP+E86 (cf. D. Markowitz et al. in J. Virol. 62, 1120-1124 (1988)) was used as the packaging cell.
The test was performed as follows. F/L-HERc cells were cultivated in RPMI/1640 medium (BioWhittaker), supplemented with 10% fetal calf serum (FCS, Boehringer Mannheim), 2 mM glutamine (BioWhittaker), standard antibiotics and 20 ng/ml of human EGF (Promega), at 37° C. and 5% CO2—In order to investigate the inhibitory activity of the compounds according to the invention, 1.5×10^4 cells per well were cultivated in triplicate in 96-well dishes in the above medium (200 μl), the cell proliferation being stimulated with either EGF (20 ng/ml) or murine IL-3. The IL-3 used was obtained from culture supernatants of the cell line X63/0 mL-3 (cf. H. Karasuyama et al. in Eur. J. Immunol. 18, 97-104 (1988)). The compounds according to the invention were dissolved in 100% dimethylsulfoxide (DMSO) and added to the cultures in various dilutions, the maximum DMSO concentration being 1%. The cultures were incubated for 48 hours at 37° C.
In order to determine the inhibitory activity of the compounds according to the invention the relative cell number was measured in O.D. units using the Cell Titer 96™ Aqueous Non-Radioactive Cell Proliferation Assay (Promega). The relative cell number was calculated as a percentage of the control (F/LHERc cells without inhibitor) and the concentration of active substance which inhibits the proliferation of the cells by 50% (IC50) was derived therefrom.

SMILES | pIC50 (human EGF-R) | melting point [°C]
CCOC(=O)CN1CCC[C@H]1COc1cc2c(Nc3cccc(Br)c3)ncnc2cc1OC [1(2), (s)-4-[(3-bromophenyl)amino]-6-({1-[(ethoxycarbonyl)methyl]pyrrolidin-2-yl}methoxy)-7-methoxyquinazoline] | 7.70 | 
COC(=O)[C@@H]1CCCN1CCCOc1cc2c(Nc3cccc(Br)c3)ncnc2cc1OC [2(1), (s)-4-[(3-bromophenyl)amino]-6-[3-(2-methoxycarbonylpyrrolidin-1-yl)propyloxy]-7-methoxyquinazoline] | 7.41 | 
CCOC(=O)CN(CCOc1cc2c(Nc3cccc(Br)c3)ncnc2cc1OC)CC(=O)OCC [3(2), 4-[(3-bromophenyl)amino]-6-(2-{N,N-bis[(ethoxycarbonyl)methyl]amino}ethoxy)-7-methoxyquinazoline] | 7.15 | 
COC(=O)CC(CC(=O)OC)N1CCN(CCOc2cc3c(Nc4cccc(Br)c4)ncnc3cc2OC)CC1 [3(4), 4-[(3-bromophenyl)amino]-6-[2-(4-{1-[(methoxycarbonyl)methyl]-2-(methoxycarbonyl)ethyl}piperazin-1-yl)ethoxy]-7-methoxyquinazoline] | 7.11 | 
CCOC(=O)CN1CCN(CCOc2cc3c(Nc4cccc(Br)c4)ncnc3cc2OC)CC1 [Example 3, 4-[(3-bromophenyl)amino]-6-(2-{4-[(ethoxycarbonyl)methyl]piperazin-1-yl}ethoxy)-7-methoxyquinazoline] | 7.35 | 155
CCOC(=O)CN1CCN(CC(O)COc2cc3c(Nc4cccc(Br)c4)ncnc3cc2OC)CC1 (centres unmarked) [Example 4, 4-[(3-bromophenyl)amino]-6-(3-{4-[(ethoxycarbonyl)methyl]piperazin-1-yl}-2-hydroxypropyloxy)-7-methoxyquinazoline] | 7.48 | 118 to 122

The remaining lines, values ahead:

pIC50 (human EGF-R) | melting point [°C] | SMILES
7.00 |  | CCOC(=O)CN(C)CCOc1cc2c(Nc3cccc(Br)c3)ncnc2cc1OC [3(1), 4-[(3-bromophenyl)amino]-6-(2-{N-[(ethoxycarbonyl)methyl]-N-methylamino}ethoxy)-7-methoxyquinazoline]
7.34 |  | COC(=O)CN1CCN(CCCOc2cc3c(Nc4ccc(F)c(Cl)c4)ncnc3cc2OC)CC1 [Example 1, 4-(3-chloro-4-fluorophenylamino)-6-{3-[4-(methoxycarbonylmethyl)-1-piperazinyl]propyloxy}-7-methoxyquinazoline]
6.64 |  | CCOC(=O)CN(C)CCCOc1cc2c(Nc3ccc(F)c(Cl)c3)ncnc2cc1OC [Example 2, 4-(3-chloro-4-fluorophenylamino)-6-{3-[N-(ethoxycarbonylmethyl)-N-methylamino]propyloxy}-7-methoxyquinazoline]
